Structures can show the parent of a compound that is named as a salt.
Assays:
[1] = Neuroprotective activity against rat cortical cells at 10.0 uM assessed as glutamate-induced neurotoxicity by MTT assay; assay type: functional
[2] = Neuroprotective activity against rat cortical cells assessed as glutamate-induced neurotoxicity by MTT assay; assay type: functional, cell-based
[3] = Neuroprotective activity against rat cortical cells at 0.1 uM assessed as glutamate-induced neurotoxicity by MTT assay; assay type: functional
[4] = Neuroprotective activity against rat cortical cells at 1.0 uM assessed as glutamate-induced neurotoxicity by MTT assay; assay type: functional

SMILES | Emax at 10 µM [1] | EC50 [2] | Emax at 0.1 µM [3] | Emax at 1 µM [4]
CC1(C)O[C@H]2CC(=O)OC[C@]23[C@H]2CC[C@@]4(C)[C@H](c5ccoc5)OC(=O)[C@H]5O[C@]54[C@]2(C)[C@@H](O)C(=O)[C@@H]13 [RUTAEVIN] | 65.4% | 3060 nM |  | 
CC1(C)O[C@H]2CC(=O)OC[C@]23[C@H]2CC[C@@]4(C)[C@H](c5ccoc5)OC(=O)[C@H]5O[C@]54[C@]2(C)C(=O)C[C@@H]13 [LIMONIN] |  | 18 nM | 75.9% | 
C[C@]12N[C@H](Cc3ccccc31)c1ccccc12 [DIZOCILPINE MALEATE] | 83.8% | 480 nM |  | 
CC1=C2C(=O)O[C@@H](c3ccoc3)[C@]2(C)CC[C@@H]1O |  | 98 nM | 51.1% | 
CC1=C2C(=O)O[C@@H](c3ccoc3)[C@]2(C)CCC1=O [FRAXINELLONONE] |  |  |  | 47.6%
CC1=C2C(=O)O[C@@H](c3ccoc3)[C@]2(C)CCC1 [FRAXINELLONE] |  | 22 nM | 70.4% | 
CC1=CCC[C@@]2(C)[C@H](c3ccoc3)OC(=O)[C@H]3O[C@]132 [CALODENDROLIDE] |  | 19 nM | 71.9% | 
CC1(C)OC(=O)C=C[C@]2(C)[C@H]3CC[C@@]4(C)[C@H](c5ccoc5)OC(=O)[C@H]5O[C@]54[C@]3(C)C(=O)C[C@@H]12 [OBACUNONE] |  | 39 nM | 63.9% | 
CC1=C2[C@@H](O)C(=O)O[C@@H](c3ccoc3)[C@]2(C)CC[C@@H]1O [DICTAMDIOL A] |  | 68 nM | 68.1% | 
C[C@H]1C2=C(O)C(=O)O[C@@H](c3ccoc3)[C@]2(C)CC[C@@H]1O[C@@H]1O[C@H](CO)[C@@H](O)[C@H](O)[C@H]1O [DICTAMNUSINE] |  | 42 nM | 62.1% | 
CC1=C2[C@H](O)C(=O)O[C@@H](c3ccoc3)[C@]2(C)CC[C@@H]1O [DICTAMDIOL] |  |  | 35.3% | 
CC1=C2C(=O)O[C@@H](c3ccoc3)[C@]2(C)CC[C@H]1O[C@@H]1O[C@H](CO)[C@@H](O)[C@H](O)[C@H]1O |  | 705 nM |  | 53%
CC1=C2[C@H](O)C(=O)O[C@@H](c3ccoc3)[C@]2(C)CC[C@H]1O [DICTAMDIOL B] |  |  | 45.6% | 

From ChEMBL document CHEMBL1144759, “Neuroprotective limonoids of root bark of Dictamnus dasycarpus” (J Nat Prod, 2008)
